28 compounds from patent publication US20090111801A1, “SUBSTITUTED PYRAZINONE DERIVATIVES FOR USE AS A MEDICINE” (Janssen Pharmaceutica N.V., priority 2006, published 2009) can be followed below.

Assay [1] deals with T1, hα2C receptor (Homo sapiens, UniProt P18825).
T1 construct: expressed in transfected cells; host or cells: CHO cells, stably transfected; membrane preparation
T1 sequence (P18825 1-462): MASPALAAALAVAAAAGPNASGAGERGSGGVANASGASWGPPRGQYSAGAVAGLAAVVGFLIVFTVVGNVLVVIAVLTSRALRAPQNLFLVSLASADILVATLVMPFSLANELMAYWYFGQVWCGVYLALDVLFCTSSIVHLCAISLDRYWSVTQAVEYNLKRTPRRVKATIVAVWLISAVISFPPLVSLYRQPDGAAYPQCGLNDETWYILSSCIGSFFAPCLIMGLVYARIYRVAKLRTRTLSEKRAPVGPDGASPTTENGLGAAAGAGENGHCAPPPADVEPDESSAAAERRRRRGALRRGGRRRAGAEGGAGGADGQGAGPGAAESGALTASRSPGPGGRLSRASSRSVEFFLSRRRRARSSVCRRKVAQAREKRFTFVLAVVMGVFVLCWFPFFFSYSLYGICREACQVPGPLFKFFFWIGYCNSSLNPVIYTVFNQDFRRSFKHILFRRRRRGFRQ
As to the kind of experiment: Radioligand binding experiment for α2C-adrenoceptor ([3H]raulwolscine, CHO cell membranes). The settings on record: [3H]raulwolscine binding; for IC50: read-out: h-α2C pIC50 (converted). The method, then: (§1) The interaction of a compound of Formula (I) with α2-adrenoceptor receptors was assessed in in vitro radioligand binding experiments. In general, a low concentration of a radioligand with a high binding affinity for a particular receptor or transporter is incubated with a sample of a tissue preparation enriched in a particular receptor or transporter or with a preparation of cells expressing cloned human receptors in a buffered medium. During the incubation, the radioligand binds to the receptor or transporter. When equilibrium of binding is reached, the receptor bound radioactivity is separated from the non-bound radioactivity, and the receptor- or transporter-bound activity is counted. The interaction of the test compounds with the receptor is assessed in competition binding experiments. Various concentrations of the test compound are added to the incubation mixture containing the receptor- or transporter preparation and the radioligand. The test compound in proportion to its binding affinity and its concentration inhibits binding of the radioligand. The radioligand used for hα2A and hα2C receptor binding was [^3H]-raulwolscine.
(§2) CHO cells, stabile transfected with human adrenergic-α2A and α2C receptor cDNA, were cultured in Dulbecco's Modified Eagle's Medium (DMEM)/Nutrient mixture Ham's F12 (ratio 1:1)(Gibco, Gent-Belgium) supplemented with 10% heat inactivated fetal calf serum (Life Technologies, Merelbeke-Belgium) and antibiotics (100 IU/ml penicillin G, 100 μg/ml streptomycin sulphate, 110 μg/ml pyruvic acid and 100 μg/ml L-glutamine). One day before collection, cells were induced with 5 mM sodiumbutyrate. Upon 80-90% of confluence, cells were scraped in phosphate buffered saline without Ca^2+ and Mg^2+ and collected by centrifugation at 1500×g for 10 minutes. The cells were homogenised in Tris-HCl 50 mM using an Ultraturrax homogenizer and centrifuged for 10 minutes at 23,500×g. The pellet was washed once by resuspension and rehomogenization and the final pellet was resuspended in Tris-HCl, divided in 1 ml aliquots and stored at −70° C.
(§3) Membranes were thawed and re-homogenized in incubation buffer (glycylglycine 25 mM, pH 8.0). […] Filters were rinsed extensively with ice-cold rinsing buffer (Tris-HCl 50 mM pH 7.4). Filter-bound radioactivity was determined by scintillation counting in a Topcount (Packard, Meriden, Conn.) and results were expressed as counts per minute (cpm). Non-specific binding was determined in the presence of 1 μM oxymetazoline for the hα2A receptor and 1 μM spiroxatrine for hα2C receptor.
(§4) Data from assays in the presence of compound were calculated as a percentage of total binding measured in the absence of test compound. Inhibition curves, plotting percent of total binding versus the log value of the concentration of the test compound, were automatically generated, and sigmoidal inhibition curves were fitted using non-linear regression. The pIC50 values of test compounds were derived from individual curves.

Assay [2] concerns the target T2, 5HT-Transporter (Homo sapiens, UniProt P31645).
T2 construct: Human platelet membranes (Oceanix Biosciences Corporation, Hanover, Md., USA) were thawed; tissue Oceanix Biosciences Corporation, Hanover, Md., USA; host or cells: human platelet membranes
The experiment in a line: Binding experiment for the 5HT-transporter ([3H]paroxetine, human platelet membranes). Conditions: [3H]paroxetine 0.5 nM; for IC50: read-out: h-5HTT pIC50 (converted). The method, then: as §1
Human platelet membranes (Oceanix Biosciences Corporation, Hanover, Md., USA) were thawed, diluted in buffer (Tris-HCl 50 mM, 120 mM NaCl and 5 mM KCl) and quickly (max 3 s) homogenised with an Ultraturrax homogenizer. […] Incubation was stopped by rapid filtration of the incubation mixture over GF/B filters, pre-wetted with 0.1% polyethyleneamine, using a Filtermate196 harvester (Packard, Meriden, Conn.). Filters were rinsed extensively with ice-cold buffer and radioactivity on the filters was counted in a Topcount liquid scintillation counter (Packard, Meriden, Conn.). Data were expressed as cpm. Imipramine (at 1 μM final concentration) was used to determine the non-specific binding.
as §4

Assay [3] deals with T3, hα2A receptor (Homo sapiens, UniProt P08913).
T3 construct: expressed in transfected cells; host or cells: CHO cells, stably transfected; membrane preparation
T3 sequence (P08913 1-465): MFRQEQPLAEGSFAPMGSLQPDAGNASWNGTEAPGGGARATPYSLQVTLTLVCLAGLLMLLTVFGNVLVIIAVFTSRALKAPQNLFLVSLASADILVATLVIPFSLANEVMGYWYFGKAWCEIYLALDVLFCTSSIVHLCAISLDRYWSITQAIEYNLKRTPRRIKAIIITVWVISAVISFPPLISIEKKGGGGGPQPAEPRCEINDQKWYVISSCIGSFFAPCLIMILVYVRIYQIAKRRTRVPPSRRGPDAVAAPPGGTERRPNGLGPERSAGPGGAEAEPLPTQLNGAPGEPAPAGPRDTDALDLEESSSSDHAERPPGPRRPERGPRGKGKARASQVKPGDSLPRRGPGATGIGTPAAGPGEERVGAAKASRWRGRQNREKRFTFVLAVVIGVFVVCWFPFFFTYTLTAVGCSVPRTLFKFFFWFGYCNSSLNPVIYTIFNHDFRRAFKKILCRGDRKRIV
The experiment in a line: Radioligand binding experiment for α2A-adrenoceptor ([3H]raulwolscine, CHO cell membranes). The settings on record: [3H]raulwolscine binding; for IC50: read-out: h-α2A pIC50 (converted). The method, then: as §1, §2, §3, §4

T2 sequence (P31645 whole entry): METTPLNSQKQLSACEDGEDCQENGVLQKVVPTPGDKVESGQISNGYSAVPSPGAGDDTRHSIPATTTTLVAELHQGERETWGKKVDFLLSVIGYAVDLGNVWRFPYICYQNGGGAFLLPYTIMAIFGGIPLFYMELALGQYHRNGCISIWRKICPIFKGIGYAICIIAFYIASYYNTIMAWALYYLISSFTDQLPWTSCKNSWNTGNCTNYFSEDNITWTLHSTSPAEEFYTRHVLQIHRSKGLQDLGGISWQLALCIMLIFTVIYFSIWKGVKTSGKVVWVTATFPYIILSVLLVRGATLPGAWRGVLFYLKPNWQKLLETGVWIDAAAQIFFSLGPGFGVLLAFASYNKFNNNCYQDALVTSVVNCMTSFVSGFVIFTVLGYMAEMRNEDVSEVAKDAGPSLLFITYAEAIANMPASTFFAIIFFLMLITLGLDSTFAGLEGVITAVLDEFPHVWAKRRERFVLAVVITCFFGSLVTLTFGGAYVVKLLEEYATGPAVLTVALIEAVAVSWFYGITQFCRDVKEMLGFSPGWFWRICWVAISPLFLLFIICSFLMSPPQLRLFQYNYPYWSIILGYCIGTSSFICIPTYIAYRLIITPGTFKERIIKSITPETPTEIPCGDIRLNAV

Turning to `C/C(=C\c1ccccc1)CN1CCC(Nc2nccn(-c3ccc(CNC(=O)c4ccc(F)cc4)cc3)c2=O)CC1` [1-78], the “h-α2C pIC50” value in assay [1] was 8.3. The “h-5HTT pIC50” value in assay [2] stood at 7.1. Also, the “h-α2A pIC50” value in assay [3] came to 6.7.

Take `C/C(=C\c1ccccc1)CN1CCC(Nc2nccn(CCCN(C)S(=O)(=O)c3ccccc3)c2=O)CC1` [1-160]: the values for the IC50 in assay [1], in assay [2] and in assay [3] were 12.6 nM, 501 nM and 158 nM, respectively.

With `C/C(=C\c1ccccc1)CN1CCC(Nc2nccn(CCCN(Cc3ccccc3)S(C)(=O)=O)c2=O)CC1` [1-169], the IC50 in assay [1] was 10 nM; in assay [2], 316 nM; in assay [3], 200 nM.

For the compound `CSCCn1ccnc(NC2CCN(C/C=C/c3ccccc3)CC2)c1=O` [16-12], the IC50 in assay [1] was 316 nM; in assay [2], 2510 nM; in assay [3], 794 nM.

Turning to `C/C(=C\c1ccccc1)CN1CCC(Nc2nccn(CC(=O)N(C)CCN(C)C)c2=O)CC1` [1-108], the values for the IC50 in assay [1], in assay [2] and in assay [3] were 1.58 nM, 6310 nM and 50.1 nM, respectively.

As for `COCCN(C)Cc1cccc(-n2ccnc(NC3CCN(C/C(C)=C/c4ccccc4)CC3)c2=O)c1` [1-25], the IC50 in assay [1] is 1 nM; in assay [2], 1580 nM; in assay [3] it was 5.01 nM.

Turning to `C/C(=C\c1ccccc1)CN1CCN(c2nccn(CCOc3ccccc3)c2=O)CC1` [10-2], the IC50 in assay [1] was 100 nM; in assay [2], 1260 nM; in assay [3] it was 251 nM.

With `C/C(=C\c1ccccc1)CN1CCC(Nc2nccn(-c3ccncc3)c2=O)CC1` [6-12], the IC50 is 7.94 nM in assay [1], 1580 nM in assay [2] and 50.1 nM in assay [3].

As for `C/C(=C\c1ccccc1)CN1CCC(Nc2nccn(Cc3csc(C)n3)c2=O)CC1` [6-7], the IC50 in assay [1] was 39.8 nM; in assay [2], 2000 nM; in assay [3], 251 nM.

Turning to `C/C(=C\c1ccccc1)CN1CCC(Nc2nccn(-c3ccc(CNC(=O)c4ccno4)cc3)c2=O)CC1` [1-153], in assay [1], the “h-α2C pIC50” value came out at 8.9. Also, in assay [2], the “h-5HTT pIC50” value is on record as 6.1. For the same compound, the “h-α2A pIC50” value in assay [3] is listed as 6.9.

For the compound `C/C(=C\c1ccccc1)CN1CCN(c2nccn(CC(=O)c3ccccc3)c2=O)CC1` [12-5], the IC50 in assay [1] is 50.1 nM; in assay [2], 3980 nM; in assay [3], 316 nM.

Take `C/C(=C\c1ccccc1)CN1CCC(Nc2nccn(-c3cccnc3)c2=O)CC1` [6-11]: the IC50 in assay [1] was 25.1 nM; in assay [2], 3980 nM; in assay [3], 251 nM.

Consider `C/C(=C\c1ccccc1)CN1CCC(Nc2nccn(-c3ccc(CNCCN4CCCC4)cc3)c2=O)CC1` [1-131], for which the IC50 in assay [1] is 3.16 nM; in assay [2], 158 nM; in assay [3], 25.1 nM.

With `C/C(=C\c1ccccc1)CN1CCC(Nc2nccn(-c3ccc(N4CCN(c5ccccc5)CC4)cc3)c2=O)CC1` [2-28], the IC50 was 15.8 nM in assay [1], 794 nM in assay [2] and 100 nM in assay [3].

Take `C/C(=C\c1ccccc1)CN1CCC(Nc2nccn(Cc3ccc(CNC(=O)c4ccncc4)cc3)c2=O)CC1` [1-154]: the IC50 in assay [1] is 39.8 nM; in assay [2], 398 nM; in assay [3], 126 nM.

With `C/C(=C\c1ccccc1)CN1CCC(Nc2nccn(-c3ccc(N4CCCCC4)cc3)c2=O)CC1` [2-7], the IC50 in assay [1] is 5.01 nM; in assay [2] it was 1260 nM; in assay [3] it was 50.1 nM.

In the case of `C/C(=C\c1ccccc1)CN1CCC(Nc2nccn(-c3ccc(Nc4ccc(F)cc4)cc3)c2=O)CC1` [1-44], the values for the IC50 in assay [1], in assay [2] and in assay [3] were 5.01 nM, 794 nM and 100 nM, respectively.

For the compound `C/C(=C\c1ccccc1)CN1CCC(Nc2nccn(CCCN(C)C(=O)c3ccc(F)cc3)c2=O)CC1` [1-79], the IC50 was 39.8 nM in assay [1], greater than 10000 nM in assay [2] and 2000 nM in assay [3].

`C=CCN1CCN(C(=O)c2ccc(-n3ccnc(NC4CCN(C/C(C)=C/c5ccccc5)CC4)c3=O)cc2)CC1` [2-25]: the IC50 in assay [1] is 7.94 nM; in assay [2], 501 nM; in assay [3], 126 nM.

As to `C/C(=C\c1ccccc1)CN1CCN(c2nccn(Cc3ccco3)c2=O)CC1` [13-1], the IC50 was 63.1 nM in assay [1], 6310 nM in assay [2] and 50.1 nM in assay [3].

On to `C/C(=C\c1ccccc1)CN1CCN(c2nccn(CC(=O)c3ccc(-c4ccccc4)cc3)c2=O)CC1` [12-6], for which the IC50 is 251 nM in assay [1], 2000 nM in assay [2] and 398 nM in assay [3].

Consider `CCN(Cc1ccncc1)C(=O)Cn1ccnc(NC2CCN(C/C(C)=C/c3ccccc3)CC2)c1=O` [1-142], for which the IC50 is 3.16 nM in assay [1], 1000 nM in assay [2] and 158 nM in assay [3].

With `C/C(=C\c1ccccc1)CN1CCC(Nc2nccn(CC(=O)NCc3cccnc3)c2=O)CC1` [1-141], the IC50 in assay [1] was 6.31 nM; in assay [2], 1580 nM; in assay [3], 100 nM.

With `C/C(=C\c1ccccc1)CN1CCC(Nc2nccn(-c3ccc(C(=O)NC4CCN(Cc5ccccc5)CC4)cc3)c2=O)CC1` [1-129], the values for the IC50 in assay [1], in assay [2] and in assay [3] were 25.1 nM, 501 nM and 63.1 nM, respectively.

Consider `C/C(=C\c1ccccc1)CN1CCC(Nc2nccn(-c3ccc(C(=O)NCCN4CCCCC4)cc3)c2=O)CC1` [1-140], for which the IC50 in assay [1] was 3.98 nM; in assay [2], 200 nM; in assay [3] it was 39.8 nM.

`C/C(=C\c1ccccc1)CN1CCC(Nc2nccn(-c3cccc(CN(C)CCN(C)C)c3)c2=O)CC1` [1-109]: the “h-α2C pIC50” value in assay [1] amounted to 8.6. In assay [2], the “h-5HTT pIC50” value amounted to 6.5. Moreover, the “h-α2A pIC50” value in assay [3] was found to be 8.2.

Turning to `C/C(=C\c1ccccc1)CN1CCC(Nc2nccn(-c3cccc(CO)c3)c2=O)CC1` [3-2], the IC50 in assay [1] was 12.6 nM; in assay [2], 5010 nM; in assay [3] it was 79.4 nM.

With `C/C(=C\c1ccccc1)CN1CCC(Nc2nccn(Cc3cccc(C(F)(F)F)c3)c2=O)CC1` [5-22], the IC50 in assay [1] is 50.1 nM; in assay [2] it was 794 nM; in assay [3] it was 126 nM.
